Source: ChEMBL document CHEMBL4823252 (J Med Chem, 2021)
pIC50: −log10 of the molar value. Active and inactive are the calls of the source. The calls are words filed in the database; no cut-off is given here.

Experiments:
MOLM-13 [1] = assay: Induction of apoptosis in human MOLM-13 cells assessed as necrotic cells at 10 nM incubated for 24 hrs by flow cytometry (reference value: 0.45%); assay type: functional
MV4-11 [2] = assay: Induction of apoptosis in human MV4-11 cells assessed as late apoptotic cells at 1 nM incubated for 24 hrs by flow cytometry (reference value: 0.58%); assay type: functional
MOLM-13 [3] = assay: Induction of cell cycle arrest in human MOLM-13 cells assessed as accumulation at S phase at 10 nM incubated for 24 hrs by flow cytometry (reference value: 16.28%); assay type: functional
MOLM-13 [4] = assay: Antiproliferative activity against human quizartinib-resistant MOLM-13 cells at 12 nM incubated for 72 hrs by CCK8 assay relative to control; assay type: functional
MOLM-13 [5] = assay: Induction of apoptosis in human MOLM-13 cells assessed as viable cells at 1 nM incubated for 24 hrs by flow cytometry (reference value: 92.83%); assay type: functional; details: read-out: Activity
MOLM-13 [6] = assay: Induction of cell cycle arrest in human MOLM-13 cells assessed as accumulation at sub-G1 phase at 100 nM incubated for 24 hrs by flow cytometry (reference value: 4.24%); assay type: functional
MOLM-13 [7] = assay: Induction of cell cycle arrest in human MOLM-13 cells assessed as accumulation at G1 phase at 10 nM incubated for 24 hrs by flow cytometry (reference value: 69.08%); assay type: functional
MOLM-13 [8] = assay: Antiproliferative activity against human sunitinib-resistant MOLM-13 cells at 1 nM incubated for 72 hrs by CCK8 assay relative to control; assay type: functional
MV4-11 [9] = assay: Induction of apoptosis in human MV4-11 cells assessed as necrotic cells at 10 nM incubated for 24 hrs by flow cytometry (reference value: 0.25%); assay type: functional
MOLM-13 [10] = assay: Antiproliferative activity against human sunitinib-resistant MOLM-13 cells at 4 nM incubated for 72 hrs by CCK8 assay relative to control; assay type: functional
MV4-11 [11] = assay: Induction of apoptosis in human MV4-11 cells assessed as viable cells at 100 nM incubated for 24 hrs by flow cytometry (reference value: 98.86%); assay type: functional; details: read-out: Activity
MV4-11 [12] = assay: Induction of cell cycle arrest in human MV4-11 cells assessed as accumulation at G1 phase at 10 nM incubated for 24 hrs by flow cytometry (reference value: 64.73%); assay type: functional
MOLM-13 [13] = assay: Antiproliferative activity against human quizartinib-resistant MOLM-13 cells at 1 nM incubated for 72 hrs by CCK8 assay relative to control; assay type: functional
MOLM-13 [14] = assay: Induction of apoptosis in human MOLM-13 cells assessed as early apoptotic cells at 1 nM incubated for 24 hrs by flow cytometry (reference value: 2.18%); assay type: functional
Homo sapiens = species on record: Homo sapiens; assay: Binding affinity to FLT3 ITD F691L mutant (unknown origin) at 1000 nM relative to control
MOLM-13 [15] = assay: Antitumor activity against human MOLM-13 cells xenografted in po dosed mouse assessed as inhibition of tumor cell proliferation administered for 16 days measured once for every 2 days by Ki67 staining based immunohistochemical analysis; assay type: functional, organism-based; details: time 16.0 day
MV4-11 [16] = assay: Antitumor activity against human MV4-11 cells xenografted in mouse assessed as tumor growth inhibition at 10 mg/kg, po administered for 20 days measured once every 2 days relative to control; assay type: functional; details: MV4-11, po, 480 h, time 20 day, read-out: TGI
[17] = target: Receptor-type tyrosine-protein kinase FLT3 (Homo sapiens) (UniProt P36888); assay: Inhibition of FLT3 in human MOLM-13 cells assessed as reduction in autophosphorylation at tyr589/591 residue incubated for 2 hrs by Western blot analysis; assay type: cell-based
[18] = Oral bioavailability in Sprague-Dawley rat at 10 mg/kg; assay type: ADME, organism-based; details: in vivo
MOLM-13 [19] = assay: Antitumor activity against human MOLM-13 cells xenografted in mouse assessed as tumor growth inhibition at 20 mg/kg, po administered for 16 days measured once every 2 days relative to control; assay type: functional; details: MOLM-13, po, 384 h, time 16 day, read-out: TGI
MV4-11 [20] = assay: Induction of cell cycle arrest in human MV4-11 cells assessed as accumulation at sub-G1 phase at 1 nM incubated for 24 hrs by flow cytometry (reference value: […]%); assay type: functional
[21] = target: Vascular endothelial growth factor receptor 1 (Homo sapiens, UniProt P17948); assay: Inhibition of VEGFR1 (unknown origin) incubated for 30 mins in presence of ATP by mobility shift assay
[22] = target: Receptor-type tyrosine-protein kinase FLT3 (Homo sapiens, UniProt P36888, D835Y); assay: Inhibition of FLT3 D835Y mutant (unknown origin) incubated for 30 mins in presence of ATP by mobility shift assay
[23] = Toxicity in mouse xenografted with human MV4-11 cells assessed as effect on heart at 2.5 to 10 mg/kg, po administered for 16 days by hematoxylin and eosin staining based assay; assay type: organism-based; details: in vivo, 384 h, dose 2.5-10 mg/kg, time 16 day
[24] = Toxicity in mouse xenografted with human MV4-11 cells assessed as effect on kidney at 2.5 to 10 mg/kg, po administered for 16 days by hematoxylin and eosin staining assay; assay type: organism-based; details: in vivo, 384 h, dose 2.5-10 mg/kg, time 16 day
[25] = target: Receptor-type tyrosine-protein kinase FLT3 (Homo sapiens) (UniProt P36888); assay: Inhibition of FLT3 in human MV4-11 cells assessed as reduction in ERK phosphorylation at 10 uM incubated for 2 hrs by Western blot analysis; assay type: cell-based
[26] = MRT (0 to last) in Sprague-Dawley rat at 10 mg/kg, po; assay type: ADME, organism-based; details: in vivo
[27] = Tmax in Sprague-Dawley rat at 10 mg/kg, po; assay type: ADME, organism-based; details: in vivo
[28] = target: Vascular endothelial growth factor receptor 2 (Homo sapiens, UniProt P35968); assay: Inhibition of VEGFR2 (unknown origin) incubated for 30 mins in presence of ATP by mobility shift assay
MOLM-13 [29] = assay: Induction of apoptosis in human MOLM-13 cells assessed as viable cells at 10 nM incubated for 24 hrs by flow cytometry (reference value: 92.83%); assay type: functional; details: read-out: Activity
[30] = target: Platelet-derived growth factor receptor beta (Homo sapiens, UniProt P09619); assay: Inhibition of PDGFRbeta (unknown origin) incubated for 30 mins in presence of ATP by mobility shift assay
HepG2 = assay: Antiproliferative activity against human HepG2 cells measured after 72 hrs by CCK8 assay; assay type: functional, cell-based; details: HepG2, 72 h
[31] = tested on: Receptor-type tyrosine-protein kinase FLT3 (Homo sapiens), P36888 [UNDEFINED MUTATION]; assay: Binding affinity to FLT3 ITD mutant (unknown origin) at 1000 nM relative to control
[32] = AUC (0 to last) in Sprague-Dawley rat at 10 mg/kg, po; assay type: ADME, organism-based; design: route oral, time 0 - last, dose 10 mg/kg; details: in vivo
KG-1 = assay: Antiproliferative activity against human KG1 cells measured after 72 hrs by CCK8 assay; assay type: functional, cell-based; details: KG-1, 72 h
MV4-11 [33] = assay: Induction of apoptosis in human MV4-11 cells assessed as late apoptotic cells at 100 nM incubated for 24 hrs by flow cytometry (reference value: 0.58%); assay type: functional
MOLM-13 [34] = assay: Induction of cell cycle arrest in human MOLM-13 cells assessed as accumulation at G2/M phase at 10 nM incubated for 24 hrs by flow cytometry (reference value: […]); assay type: functional
[35] = Cmax in Sprague-Dawley rat at 10 mg/kg, po; assay type: ADME, organism-based; design: route oral, dose 10 mg/kg; details: in vivo

Vascular endothelial growth factor receptor 2, sequence (P35968 whole entry): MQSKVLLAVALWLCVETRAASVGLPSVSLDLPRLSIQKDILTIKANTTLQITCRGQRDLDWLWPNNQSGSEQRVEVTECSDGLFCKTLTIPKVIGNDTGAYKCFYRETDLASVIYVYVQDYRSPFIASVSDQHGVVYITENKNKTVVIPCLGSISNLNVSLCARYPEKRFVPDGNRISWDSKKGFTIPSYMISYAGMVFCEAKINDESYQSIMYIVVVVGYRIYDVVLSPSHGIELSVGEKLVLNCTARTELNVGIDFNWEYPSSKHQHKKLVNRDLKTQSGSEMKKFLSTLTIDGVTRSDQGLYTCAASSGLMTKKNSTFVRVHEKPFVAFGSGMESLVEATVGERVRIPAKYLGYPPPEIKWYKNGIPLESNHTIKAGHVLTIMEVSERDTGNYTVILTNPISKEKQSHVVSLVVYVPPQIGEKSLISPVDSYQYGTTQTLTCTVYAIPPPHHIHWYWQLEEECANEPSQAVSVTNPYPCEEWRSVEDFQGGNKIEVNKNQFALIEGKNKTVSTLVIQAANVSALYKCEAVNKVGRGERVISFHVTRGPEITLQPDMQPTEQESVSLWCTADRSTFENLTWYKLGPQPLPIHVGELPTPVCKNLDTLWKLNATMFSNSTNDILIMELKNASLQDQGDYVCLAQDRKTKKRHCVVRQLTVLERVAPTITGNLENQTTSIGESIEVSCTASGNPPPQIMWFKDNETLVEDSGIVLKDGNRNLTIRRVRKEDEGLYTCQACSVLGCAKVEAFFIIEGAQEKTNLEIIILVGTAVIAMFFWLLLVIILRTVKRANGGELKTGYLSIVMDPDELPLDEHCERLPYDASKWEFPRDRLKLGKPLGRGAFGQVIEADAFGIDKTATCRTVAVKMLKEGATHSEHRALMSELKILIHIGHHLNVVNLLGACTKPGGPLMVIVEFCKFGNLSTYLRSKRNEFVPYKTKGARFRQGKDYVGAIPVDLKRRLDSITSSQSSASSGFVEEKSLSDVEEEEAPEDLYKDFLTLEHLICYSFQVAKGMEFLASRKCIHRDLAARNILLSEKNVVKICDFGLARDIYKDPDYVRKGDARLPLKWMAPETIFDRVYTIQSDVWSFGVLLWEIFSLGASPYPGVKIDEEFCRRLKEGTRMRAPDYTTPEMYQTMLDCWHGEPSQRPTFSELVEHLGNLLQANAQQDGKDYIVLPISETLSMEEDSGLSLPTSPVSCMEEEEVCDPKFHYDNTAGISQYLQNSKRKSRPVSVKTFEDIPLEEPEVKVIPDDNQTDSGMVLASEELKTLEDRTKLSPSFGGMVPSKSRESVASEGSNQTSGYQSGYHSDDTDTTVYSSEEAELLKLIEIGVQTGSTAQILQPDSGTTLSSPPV
Platelet-derived growth factor receptor beta, sequence (P09619 whole entry): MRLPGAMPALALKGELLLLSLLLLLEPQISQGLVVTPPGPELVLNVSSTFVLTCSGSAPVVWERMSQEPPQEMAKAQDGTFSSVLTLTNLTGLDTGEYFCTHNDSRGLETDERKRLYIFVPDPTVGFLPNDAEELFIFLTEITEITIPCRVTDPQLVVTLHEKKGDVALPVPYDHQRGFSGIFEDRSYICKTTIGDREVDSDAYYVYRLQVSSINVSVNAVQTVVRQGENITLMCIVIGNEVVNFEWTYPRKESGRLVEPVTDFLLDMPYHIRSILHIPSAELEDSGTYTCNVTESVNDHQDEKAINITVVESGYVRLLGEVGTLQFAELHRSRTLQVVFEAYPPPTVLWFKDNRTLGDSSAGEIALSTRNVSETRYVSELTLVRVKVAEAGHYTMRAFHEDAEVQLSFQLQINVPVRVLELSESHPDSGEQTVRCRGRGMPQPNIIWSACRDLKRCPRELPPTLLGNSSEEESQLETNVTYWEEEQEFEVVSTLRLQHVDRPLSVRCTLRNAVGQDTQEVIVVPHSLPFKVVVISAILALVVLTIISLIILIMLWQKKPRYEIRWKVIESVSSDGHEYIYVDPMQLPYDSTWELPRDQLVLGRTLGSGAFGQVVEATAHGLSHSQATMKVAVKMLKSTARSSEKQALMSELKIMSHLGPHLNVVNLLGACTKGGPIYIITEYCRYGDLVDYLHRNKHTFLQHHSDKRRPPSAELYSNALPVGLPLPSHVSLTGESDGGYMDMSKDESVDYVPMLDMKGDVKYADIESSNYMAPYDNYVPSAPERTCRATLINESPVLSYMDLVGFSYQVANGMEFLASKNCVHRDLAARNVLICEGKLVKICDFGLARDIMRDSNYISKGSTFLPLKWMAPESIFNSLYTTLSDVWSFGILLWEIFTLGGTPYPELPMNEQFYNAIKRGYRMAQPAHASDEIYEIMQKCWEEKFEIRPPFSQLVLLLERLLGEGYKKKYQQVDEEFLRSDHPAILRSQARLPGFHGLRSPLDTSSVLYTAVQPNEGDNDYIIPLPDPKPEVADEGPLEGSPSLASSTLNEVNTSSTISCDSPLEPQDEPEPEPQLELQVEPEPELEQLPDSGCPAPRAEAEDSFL
Vascular endothelial growth factor receptor 1, sequence (P17948 whole entry): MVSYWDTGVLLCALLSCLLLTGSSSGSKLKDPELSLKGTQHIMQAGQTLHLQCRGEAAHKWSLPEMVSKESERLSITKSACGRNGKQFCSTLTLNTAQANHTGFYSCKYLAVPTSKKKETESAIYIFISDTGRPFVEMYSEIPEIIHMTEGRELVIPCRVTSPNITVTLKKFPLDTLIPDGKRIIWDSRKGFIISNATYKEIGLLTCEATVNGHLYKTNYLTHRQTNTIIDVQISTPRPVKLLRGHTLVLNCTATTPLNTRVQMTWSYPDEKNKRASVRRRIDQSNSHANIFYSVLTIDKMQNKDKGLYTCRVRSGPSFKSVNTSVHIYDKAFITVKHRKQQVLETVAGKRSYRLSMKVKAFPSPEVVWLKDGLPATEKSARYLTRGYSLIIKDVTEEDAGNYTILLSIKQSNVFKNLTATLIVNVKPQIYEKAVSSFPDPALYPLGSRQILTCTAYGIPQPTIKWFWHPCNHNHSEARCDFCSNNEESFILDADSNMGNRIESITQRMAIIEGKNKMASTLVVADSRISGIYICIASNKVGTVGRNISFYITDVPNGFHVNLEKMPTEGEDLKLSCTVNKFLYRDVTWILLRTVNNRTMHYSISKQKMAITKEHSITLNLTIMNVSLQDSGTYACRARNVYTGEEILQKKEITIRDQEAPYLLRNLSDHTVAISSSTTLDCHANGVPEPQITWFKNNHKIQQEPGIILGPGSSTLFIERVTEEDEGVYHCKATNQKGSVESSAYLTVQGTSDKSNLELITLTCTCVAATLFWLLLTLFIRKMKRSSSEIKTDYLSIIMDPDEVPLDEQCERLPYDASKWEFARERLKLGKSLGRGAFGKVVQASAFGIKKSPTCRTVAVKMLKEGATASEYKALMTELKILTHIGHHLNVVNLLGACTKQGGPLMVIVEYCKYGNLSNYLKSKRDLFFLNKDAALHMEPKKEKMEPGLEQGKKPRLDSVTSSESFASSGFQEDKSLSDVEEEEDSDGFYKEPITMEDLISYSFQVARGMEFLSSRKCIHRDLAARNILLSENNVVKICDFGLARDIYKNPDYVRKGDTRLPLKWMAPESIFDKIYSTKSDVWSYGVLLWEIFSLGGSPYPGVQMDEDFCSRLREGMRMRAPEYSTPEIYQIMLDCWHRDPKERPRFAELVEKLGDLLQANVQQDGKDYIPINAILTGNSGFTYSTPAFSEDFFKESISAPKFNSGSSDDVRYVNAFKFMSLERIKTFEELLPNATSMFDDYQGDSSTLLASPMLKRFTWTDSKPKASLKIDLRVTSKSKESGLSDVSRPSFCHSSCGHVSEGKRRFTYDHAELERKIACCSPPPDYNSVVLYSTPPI

In the case of `CCN(CC)CCNC(=O)c1c(C)[nH]c(/C=C2\C(=O)Nc3ccc(F)cc32)c1C` [SUNITINIB], the Activity (MOLM-13 [1]) was 0.4%, the Activity (MV4-11 [2]) was 1.03% and the Activity (MOLM-13 [3]) was 5.58%. The Activity (MOLM-13 [4]) was -1.1%, the viability at 0.001 µM (MOLM-13 [5]) was 92.5% and the Activity (MOLM-13 [6]) was 49.02%. The Activity (MOLM-13 [7]) was 63.75%, the Activity (MOLM-13 [8]) was 5.3% and the Activity (MV4-11 [9]) was 1.22%. For the same molecule, the Activity (MOLM-13 [10]) was 0.9%, the viability at 0.1 µM (MV4-11 [11]) was 80.1% and the Activity (MV4-11 [12]) was 68.1%. The Activity (MOLM-13 [13]) was 0.5%.
In the case of `Cc1c(NC(=O)CCN2CCCC2)c[nH]c1/C=C1\C(=O)Nc2ccc(F)cc21`, the Activity (MOLM-13 [14]) was 3.69%, the Activity (MOLM-13 [1]) was 0.52% and the Activity (Homo sapiens) was “Active”. The Activity (MV4-11 [2]) was 0.99%, the Activity (MOLM-13 [15]) was “Dose-Dependent Effect” and the inhibition in vivo at 10 mg/kg (MV4-11 [16]) was 93.4%. For the same molecule, the Activity (MOLM-13 [3]) was 4.63%, the Activity (MOLM-13 [4]) was 2.6% and the viability at 0.001 µM (MOLM-13 [5]) was 91.8%. For the same molecule, the Activity (MOLM-13 [6]) was 42.35%, the Activity [17] was “Dose-Dependent Effect” and the bioavailability [18] was 73.6%. For the same molecule, the inhibition in vivo at 20 mg/kg (MOLM-13 [19]) was 98%, the Activity (MV4-11 [20]) was 13.92% and the pIC50 [21] was 6.92. The pIC50 [22] was 8.72, the Activity [23] was “Non-Toxic” and the Activity (MOLM-13 [7]) was 59.1%. The Activity (MOLM-13 [8]) was -4.2%, the Activity [24] was “Non-Toxic” and the Activity [25] was “Active”. It also gave an Activity (MV4-11 [9]) of 1.93%, an Activity (MOLM-13 [10]) of 3.3% and an MRT last [26] of 6.6 h. For the same molecule, the Tmax [27] was 2.7 h, the pIC50 [28] was 6.86 and the viability at 0.01 µM (MOLM-13 [29]) was 62.3%. It also gave a viability at 0.1 µM (MV4-11 [11]) of 71.7%, an Activity (MV4-11 [12]) of 66.28% and a pIC50 [30] of 7.38. The pIC50 (HepG2) was 5.77, the Activity [31] was “Active” and the AUC(0-t) [32] was 21200 ng·h/mL. It also gave a pIC50 (KG-1) of 5.96, an Activity (MV4-11 [33]) of 8.73% and an Activity (MOLM-13 [13]) of 1.5%. It also gave an Activity (MOLM-13 [34]) of 2.32% and a Cmax [35] of 1880 ng/mL.
